ChEMBL document CHEMBL1156817, “Fructose-1,6-bisphosphatase Inhibitors. 2. Design, synthesis, and structure-activity relationship of a series of phosphonic acid containing benzimidazoles that function as 5'-adenosinemonophosphate (AMP) mimics” (J Med Chem, 2010)

Tests used:
[1] = molecular target: T1, Fructose-1,6-bisphosphatase 1 (Homo sapiens, UniProt P09467); assay: Inhibition of human liver FBPase 1
T1 sequence (P09467 whole entry): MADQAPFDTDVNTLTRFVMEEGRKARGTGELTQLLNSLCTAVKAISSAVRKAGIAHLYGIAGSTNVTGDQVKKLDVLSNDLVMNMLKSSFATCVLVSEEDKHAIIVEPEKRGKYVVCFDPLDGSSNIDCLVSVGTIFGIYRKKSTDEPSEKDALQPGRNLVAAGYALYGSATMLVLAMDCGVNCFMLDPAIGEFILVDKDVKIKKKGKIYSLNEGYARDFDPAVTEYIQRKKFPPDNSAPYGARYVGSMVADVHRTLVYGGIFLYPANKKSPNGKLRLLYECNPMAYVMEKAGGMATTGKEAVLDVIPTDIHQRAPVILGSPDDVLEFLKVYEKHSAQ

[2] = molecular target: T2, Fructose-1,6-bisphosphatase 1 (Rattus norvegicus, UniProt P19112); assay: Inhibition of rat liver FBPase 1
T2 sequence (P19112 whole entry): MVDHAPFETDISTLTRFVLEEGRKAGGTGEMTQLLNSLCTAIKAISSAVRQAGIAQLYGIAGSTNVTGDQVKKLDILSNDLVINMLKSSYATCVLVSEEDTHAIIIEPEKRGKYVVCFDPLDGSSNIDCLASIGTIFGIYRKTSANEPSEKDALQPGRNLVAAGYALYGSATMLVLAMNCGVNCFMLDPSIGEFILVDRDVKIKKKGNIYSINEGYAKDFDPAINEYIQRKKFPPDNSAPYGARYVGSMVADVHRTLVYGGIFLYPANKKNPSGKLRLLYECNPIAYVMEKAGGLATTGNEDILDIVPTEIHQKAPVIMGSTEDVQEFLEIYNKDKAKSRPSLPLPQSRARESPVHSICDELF

[3] = tested on: Rattus norvegicus; assay: Reduction of blood glucose level in 18 hrs fasted normal Sprague-Dawley rat at 10 mg/kg, iv after 1 hr interval; format: functional; parameters: scale not given: the % may be the effect or the level left
[4] = tested on: Hepatocyte; assay: cells; settings: Rattus norvegicus
[5] = Oral bioavailability in 18 hrs fasted normal Sprague-Dawley rat up to 100 mg/kg by urinary excretion assay; format: ADME, organism-based; settings: urine

Row | Compound | IC50 [1] | IC50 [2] | Activity [3] | IC50 [4] | bioavailability [5]
1 | CC(C)Cn1c(-c2ccc(P(=O)(O)O)o2)nc2c(N)c(F)cc(-c3ccc(F)cc3)c21 | 180 nM | 1300 nM | 0% | 21000 nM | 
2 | Nc1cccc2c1nc(-c1ccc(P(=O)(O)O)o1)n2Cc1ccc(-c2ccccc2)cc1 | 2500 nM | 20000 nM |  | 100000 nM | 
3 | Nc1cccc2c1nc(-c1ccc(P(=O)(O)O)o1)n2Cc1ccccc1 | 5000 nM | 20000 nM |  | 100000 nM | 
4 | CC(C)Cn1c(-c2ccc(P(=O)(O)O)o2)nc2c(N)c(F)cc(Br)c21 | 130 nM | 2090 nM |  | 5000 nM | 
5 | CCC(CC)n1c(-c2ccc(P(=O)(O)O)o2)nc2c(N)c(F)ccc21 | 850 nM | 2500 nM |  | 9500 nM | 
6 | Nc1cccc2c1nc(-c1ccc(P(=O)(O)O)o1)n2Cc1ccsc1 | 4000 nM | 20000 nM |  | 100000 nM | 
7 | CCCc1cc(F)c(N)c2nc(-c3ccc(P(=O)(O)O)o3)n(CC(C)C)c12 | 100 nM | 650 nM | 60% | 5500 nM | 
8 | CCOC(=O)[C@H](C)NP(=O)(N[C@@H](C)C(=O)OCC)c1ccc(-c2nc3c(N)c(F)cc(CC)c3n2CC(C)C)o1 |  |  |  |  | 5%
9 | CC(C)Cn1c(-c2ccc(P(=O)(O)O)o2)nc2c(N)c(F)c(Cl)cc21 | 225 nM | 2000 nM |  | 16000 nM | 
10 | CC(C)Cn1c(-c2ccc(P(=O)(O)O)o2)nc2c(N)c(Br)cc(Br)c21 | 1000 nM | 2000 nM |  | 14000 nM | 
11 | Nc1cccc2c1nc(-c1ccc(P(=O)(O)O)o1)n2CC1CCCCCC1 | 3250 nM | 20000 nM |  | 100000 nM | 
12 | CC(C)Cn1c(-c2ccc(P(=O)(O)O)o2)nc2c(N)ccc(Br)c21 | 400 nM | 2000 nM |  | 14000 nM | 
13 | CCc1cc(F)c(N)c2nc(-c3ccc(P(=O)(Oc4ccc(C(=O)OC(C)(C)C)cc4)Oc4ccc(C(=O)OC(C)(C)C)cc4)o3)n(CC(C)C)c12 |  |  |  |  | 2%
14 | CCOC(=O)OCOP(=O)(OCOC(=O)OCC)c1ccc(-c2nc3c(N)c(F)cc(CC)c3n2CC(C)C)o1 |  |  |  |  | 2%
15 | CC(C)Cn1c(-c2ccc(P(=O)(O)O)o2)nc2c(N)c(F)cc(CCCN(C)C)c21 | 55 nM | 400 nM | 44% |  | 
16 | CC(C)Cn1c(-c2ccc(P(=O)(O)O)o2)nc2c(N)c(F)cc(C3CC3)c21 | 60 nM | 350 nM | 64% | 1500 nM | 
17 | Nc1cccc2c1nc(-c1ccc(P(=O)(O)O)o1)n2CC1CCCC1 | 1500 nM | 2000 nM |  | 45000 nM | 
18 | CC(C)(C)c1ccc(Cn2c(-c3ccc(P(=O)(O)O)o3)nc3c(N)cccc32)cc1 | 9500 nM | 20000 nM |  | 100000 nM | 
19 | CCc1cc(F)c(N)c2nc(-c3ccc(P(=O)(OCCSC(C)=O)OCCSC(C)=O)o3)n(CC(C)C)c12 |  |  |  |  | 2%
20 | CC(C)Cn1c(-c2ccc(P(=O)(O)O)o2)nc2c(N)c(Cl)ccc21 | 200 nM | 2000 nM |  | 15000 nM | 
21 | CCCn1c(-c2ccc(P(=O)(O)O)o2)nc2c(N)cccc21 | 1100 nM | 2000 nM |  | 37000 nM | 
22 | CC(C)Cn1c(-c2ccc(P(=O)(O)O)o2)nc2c(N)ccc(Cl)c21 | 900 nM | 2000 nM |  | 24000 nM | 
23 | Nc1cccc2c1nc(-c1ccc(P(=O)(O)O)o1)n2Cc1cccc(O)c1 | 1850 nM | 20000 nM |  | 100000 nM | 
24 | CC(C)Cn1c(-c2ccc(P(=O)(O)O)o2)nc2c(N)c(O)ccc21 | 500 nM | 20000 nM |  | 25000 nM | 
25 | CCc1cc(F)c(N)c2nc(-c3ccc(P(=O)(OCC(=O)OC(C)(C)C)OCC(=O)OC(C)(C)C)o3)n(CC(C)C)c12 |  |  |  |  | 2%
26 | CCc1cc(F)c(N)c2nc(-c3ccc(P(=O)(OCC(=O)OC(C)(C)C)OCC(=O)OC(C)(C)C)o3)n(CC(C)C)c12.Cl |  |  |  |  | 2%
27 | COc1ccc2c(nc(-c3ccc(P(=O)(O)O)o3)n2CC(C)C)c1N | 700 nM | 2000 nM |  | 16000 nM | 

The next lines start with results.

Row | IC50 [1] | IC50 [2] | Compound | Activity [3] | IC50 [4] | bioavailability [5]
28 | 2250 nM | 40000 nM | CCn1c(-c2ccc(P(=O)(O)O)o2)nc2c(N)cccc21 |  |  | 
29 | 10000 nM |  | CC(C)Cn1c(-c2ccc(P(=O)(O)O)o2)nc2c(N)c(Br)c(Cl)c(Cl)c21 |  |  | 
30 | 3000 nM | 20000 nM | CCCc1ccc2c(nc(-c3ccc(P(=O)(O)O)o3)n2CC(C)C)c1N |  | 50000 nM | 
31 | 450 nM | 2000 nM | CC(C)Cn1c(-c2ccc(P(=O)(O)O)o2)nc2c(N)c(Cl)cc(Cl)c21 |  | 14000 nM | 
32 | 800 nM | 20000 nM | Nc1cccc2c1nc(-c1ccc(P(=O)(O)O)o1)n2CC1CC1 |  | 100000 nM | 
33 | 1000 nM | 2000 nM | Nc1cccc2c1nc(-c1ccc(P(=O)(O)O)o1)n2CC12CCC(CC1)C2 |  | 25000 nM | 
34 | 70 nM | 500 nM | CC(C)Cn1c(-c2ccc(P(=O)(O)O)o2)nc2c(N)c(F)cc(CCCCCl)c21 | 47% | 3100 nM | 
35 | 800 nM | 2000 nM | Nc1cccc2c1nc(-c1ccc(P(=O)(O)O)o1)n2CC1CCC1 |  | 40000 nM | 
36 | 1500 nM | 4000 nM | CC(C)Cn1c(-c2ccc(P(=O)(O)O)o2)nc2c(N)cccc21 |  | 20000 nM | 
37 | 400 nM |  | CC(C)Cn1c(-c2ccc(P(=O)(O)O)o2)nc2c(N)c(Br)ccc21 |  | 14000 nM | 
38 | 6000 nM | 20000 nM | Cn1c(-c2ccc(P(=O)(O)O)o2)nc2c(N)cccc21 |  | 100000 nM | 
39 | 4200 nM | 20000 nM | Nc1cccc2c1nc(-c1ccc(P(=O)(O)O)o1)n2Cc1ccoc1 |  | 100000 nM | 
40 | 150 nM | 850 nM | CCC(CC)Cn1c(-c2ccc(P(=O)(O)O)o2)nc2c(N)c(F)ccc21 |  | 5000 nM | 
41 | 100 nM | 2100 nM | CC(C)CCCc1cc(F)c(N)c2nc(-c3ccc(P(=O)(O)O)o3)n(CC(C)C)c12 |  | 23000 nM | 
42 | 90 nM | 900 nM | CC(C)Cn1c(-c2ccc(P(=O)(O)O)o2)nc2c(N)c(F)cc(-c3ccccc3)c21 | 0% | 18000 nM | 
43 | 100 nM | 2280 nM | CC(C)Cn1c(-c2ccc(P(=O)(O)O)o2)nc2c(N)c(F)ccc21 |  | 2400 nM | 
44 | 2500 nM | 20000 nM | CCc1ccc2c(nc(-c3ccc(P(=O)(O)O)o3)n2CC(C)C)c1N |  | 50000 nM | 
45 | 100 nM | 2000 nM | CC(C)Cn1c(-c2ccc(P(=O)(O)O)o2)nc2c(N)c(F)cc(Cl)c21 |  |  | 
46 | 7000 nM | 20000 nM | Nc1cccc2c1nc(-c1ccc(P(=O)(O)O)o1)n2Cc1ccc(C(F)(F)F)cc1 |  | 100000 nM | 
47 | 2500 nM | 20000 nM | Nc1cccc2c1nc(-c1ccc(P(=O)(O)O)o1)n2CC1CCCCC1 |  | 100000 nM | 
48 | 280 nM | 900 nM | C=Cc1cc(F)c(N)c2nc(-c3ccc(P(=O)(O)O)o3)n(CC(C)C)c12 |  | 25000 nM | 
49 |  | 2180 nM | Nc1c(F)ccc2c1nc(-c1ccc(P(=O)(O)O)o1)n2CC1CC1 |  | 3300 nM | 
50 | 90 nM | 2000 nM | CC(C)Cn1c(-c2ccc(P(=O)(O)O)o2)nc2c(N)c(F)cc(-c3ccc(Cl)cc3)c21 |  | > 25000 nM | 
51 | 210 nM | 1600 nM | CC(C)Cn1c(-c2ccc(P(=O)(O)O)o2)nc2c(N)c(F)cc(CCC(C)(C)C)c21 | 28% | 18000 nM | 
52 | 80 nM | 450 nM | CC(C)Cn1c(-c2ccc(P(=O)(O)O)o2)nc2c(N)c(F)cc(CCCO)c21 | 63% | 1000 nM | 
